These results are taken from patent publication US12630507B2, “Pyrrolidine amide derivative salt and use thereof” (SUNSHINE LAKE PHARMA CO., LTD., priority 2020, dated 2026).

Series [1] in a line: Pharmacokinetics test, oral capsules, plasma concentration by LC-MS/MS. The conditions noted are these: male Beagle dogs, oral capsule, 5 mg/kg. Type of series: in vivo. The procedure:
The test samples (that is, the salt of the present invention or its crystal form, or the compound represented by formula (I) of the present invention) were filled into capsules for oral administration.
Three […] male Beagle dogs were taken orally administered capsules containing the test sample at a dose of 5 mg/kg, and blood was collected at time points of 0.25, 0.5, 1.0, 2.0, 5.0, 7.0 and 24 h. Standard curve was plotted based on concentrations of the samples in a suitable range, the concentration of the test sample in the plasma sample was measured and quantified by AB SCIEX API5500 LC-MS/MS at MRM mode. Pharmacokinetic parameters were calculated according to drug concentration-time curve using a noncompartmental method by WinNonLin 6.3 software.

Series [2] is described as follows: Solubility test in water by HPLC. Type of series: physicochemical. The note with it: for Concentration of compound represented by formula (I) in saturated aqueous solution: ultrapure water, 37 °C, shaking for 24 h, filtrate by HPLC. The procedure: The solubility of the present invention was determined using an Agilent 1200 High Performance Liquid Chromatograph DAD/VWD detector with an Agilent XDB-C18 model (4.6×50 mm, 5 μm). Detection wavelength was 266 nm, flow rate was 1.0 mL/min, the column temperature was 35° C., mobile phase A: acetonitrile/0.01 M ammonium acetate=[…] (V/V), analysis methods: acetonitrile/mobile phase A=70/30 (V/V), running time was 10 minutes.
The test samples were placed in organic ultrapure water at 37 O(C to prepare a supersaturated solution. After shaking for 24 h, the mixture was filtered with an aqueous filter membrane to obtain the filtrate, and the solubility of the target sample in water was detected by HPLC. Results are as shown in Table 5.

The next series addresses T1, MAO-B (Homo sapiens, UniProt P27338).
T1 sequence (P27338 1-520): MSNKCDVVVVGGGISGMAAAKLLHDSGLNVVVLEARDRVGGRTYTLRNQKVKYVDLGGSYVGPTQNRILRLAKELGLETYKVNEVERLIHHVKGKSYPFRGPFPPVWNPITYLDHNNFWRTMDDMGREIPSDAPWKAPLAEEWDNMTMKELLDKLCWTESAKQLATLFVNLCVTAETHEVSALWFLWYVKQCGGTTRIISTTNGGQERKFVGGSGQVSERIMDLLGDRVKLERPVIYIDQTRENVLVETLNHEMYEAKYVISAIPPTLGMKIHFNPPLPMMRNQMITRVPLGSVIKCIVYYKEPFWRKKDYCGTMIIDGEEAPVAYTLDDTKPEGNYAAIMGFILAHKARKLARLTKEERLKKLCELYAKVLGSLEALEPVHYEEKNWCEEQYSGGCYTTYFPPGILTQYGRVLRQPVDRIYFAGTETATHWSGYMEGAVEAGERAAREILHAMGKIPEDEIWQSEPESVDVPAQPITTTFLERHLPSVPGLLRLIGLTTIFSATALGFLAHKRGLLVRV
The conditions noted are these: as disclosed in WO 2019170115 A1; cited from earlier work.

The nature of series [3]: Hygroscopicity test (weight gain, 25° C., saturated ammonium chloride desiccator, 24 hours). The format is physicochemical. The procedure: • 1) A dry stoppered glass weighing bottle (50 mm in outer diameter, 15 mm in height) was placed in a constant temperature desiccator (the lower part was placed in a saturated ammonium chloride solution) at 25° C.±1° C. the day before, and accurately weighed (m1). • 2) An appropriate amount of the test sample was taken and spread in the above weighing bottle. The thickness of the test sample was generally about 1 mm, and it was precisely weighed (m2). • 3) The weighing bottle was opened and placed together with the bottle cap under the above constant temperature and humidity conditions for 24 hours. • 4) The weighing bottle was closed with the bottle cap, and accurately weighed (m3).

Series [4] can be described thus: Stability test (high temperature, high humidity, light). The format is physicochemical. The note with it: for Outward (appearance): cell wraps r9-r11: Off-white solid. The procedure:
• (1) High temperature test: a batch of the test samples were taken into the flat weighing bottles, spread into a thin layer with a thickness of ≤5 mm. The above weighing bottles were stored at 40° C.±2° C./75%±5% RH and 60° C.±2° C./75% f 5% RH for 30 days in an incubator. On the 5th, 10th, and 30th days, samples were taken for detection according to the key stability inspection items: the color change of the sample was observed, the purity of the sample was determined by HPLC. • (2) High humidity test: a batch of the test samples were taken into the flat weighing bottles, spread into a thin layer with a thickness of ≤5 mm, and stored for 30 days at 25° C., RH 75%±5% or RH 90%±5%. On the 5th, 10th, and 30th days, samples were taken for detection according to the key stability inspection items: the color change of the sample was observed, the purity of the sample was determined by HPLC. • (3) Light test: a batch of the test samples were taken into the flat weighing bottles, spread into a thin layer of ≤5 mm thick, and placed in a light box (with an ultraviolet lamp) with an open mouth. The test samples were stored under the condition of illuminance of 4500±500 lx and ultraviolet light ≥0.7 w·h/m^2 for 30 days. On the 5th, 10th, and 30th days, samples were taken for detection according to the key stability inspection items: the color change of the sample was observed, the purity of the sample was determined by HPLC.

[5] abbreviates: 25° C.±1° C., saturated ammonium chloride solution, 24 hours.
Setting [6] is: High humidity (25° C., RH 75% ± 5%), 5 days.
Where [7] appears, read: High humidity (25° C., RH 75% ± 5%), 10 days.
[8] abbreviates: High humidity (25° C., RH 75% ± 5%), 30 days.
Setting [9] is: High humidity (25° C., RH 90% ± 5%), 5 days.
[10] abbreviates: High humidity (25° C., RH 90% ± 5%), 10 days.
Setting [11] is: High humidity (25° C., RH 90% ± 5%), 30 days.
The mark [12] stands for this setting: High temperature (40° C., RH 75% ± 5%), 5 days.
[13] abbreviates: High temperature (40° C., RH 75% ± 5%), 10 days.
The mark [14] stands for this setting: High temperature (40° C., RH 75% ± 5%), 30 days.
Setting [15] is: High temperature (60° C., RH 75% ± 5%), 5 days.
[16] abbreviates: High temperature (60° C., RH 75% ± 5%), 10 days.
The mark [17] stands for this setting: High temperature (60° C., RH 75% ± 5%), 30 days.
The mark [18] stands for this setting: Light (4500±500 lx, ultraviolet), 5 days.
[19] abbreviates: Light (4500±500 lx, ultraviolet), 10 days.
Setting [20] is: Light (4500±500 lx, ultraviolet), 30 days.

Turning to `NC(=O)[C@@H]1C[C@H](F)CN1Cc1ccc(OCc2cccc(F)c2)cc1` [Compound represented by formula (I), (2S,4S)-4-fluoro-1-(4-(3-fluorobenzyloxy)benzyl)pyrrolidine-2-carboxamide], in series [1], the AUClast worked out at 548 ng·h/mL, the Cmax (usually the maximum level reached in the sampled fluid or tissue) stood at 0.256 µg/mL and the time of peak concentration (Tmax) (commonly the time at which the peak concentration occurs) turned out to be 0.8 h. Besides, in series [2], the “Water solubility (in words)” value was “poor water solubility” and the “Concentration of compound represented by formula (I) in saturated aqueous solution” value (shortened to “Concentration of compound represented”) turned out to be 11.40 µg/mL. Further, the “Inhibitory effect on the activity of MAO-B” value at MAO-B is “good inhibitory effect”.
In turn, `NC(=O)[C@@H]1C[C@H](F)CN1Cc1ccc(OCc2cccc(F)c2)cc1` [Example 2, (2S,4S)-4-fluoro-1-(4-(3-fluorobenzyloxy)benzyl)pyrrolidine-2-carboxamide] came in with an AUClast in series [1] of 939 ng·h/mL. The same molecule yielded a maximum concentration (Cmax) in series [1] of 0.415 µg/mL. In addition, in series [1], the Tmax stood at 1 h. Besides, in series [3], the “Hygroscopicity” value is listed as “no or almost no hygroscopicity”. Besides, the “Conclusion (hygroscopicity feature)” value in series [3] (setting [5]) was “No or almost none”. In series [3] (setting [5]), the Hygroscopicity gain is given as 0.12%. Moreover, the “Concentration of compound represented” value in series [2] worked out at 21161.79 µg/mL. In addition, the Purity in series [4] (0 day) is on record as 99.74%; in series [4] (setting [6]), 99.80%; in series [4] (setting [7]), 99.69%; in series [4] (setting [8]), 99.72%; in series [4] (setting [9]), 99.80%; in series [4] (setting [10]), 99.69%. Further, the Purity in series [4] (setting [11]) turned out to be 99.73%; in series [4] (setting [12]), 99.74%; in series [4] (setting [13]), 99.70%; in series [4] (setting [14]), 99.68%; in series [4] (setting [15]) it was 99.72%; in series [4] (setting [16]) it was 99.64%. Further, the Purity in series [4] (setting [17]) is given as 99.68%; in series [4] (setting [18]), 99.70%; in series [4] (setting [19]), 99.64%; in series [4] (setting [20]), 99.64%. Further, the “Outward (appearance)” value in series [4] (0 day), in series [4] (setting [6]), in series [4] (setting [7]), in series [4] (setting [8]), in series [4] (setting [9]) and in series [4] (setting [10]) was “Off-” in each case. Also, the “Outward (appearance)” value in series [4] (setting [11]), in series [4] (setting [12]), in series [4] (setting [13]), in series [4] (setting [14]), in series [4] (setting [15]) and in series [4] (setting [16]) was “Off-” throughout. Besides, the “Outward (appearance)” value in series [4] (setting [17]), in series [4] (setting [18]), in series [4] (setting [19]) and in series [4] (setting [20]) was “Off-” each time. Also, the “Change of appearance and purity” value in series [4] (conditions of high temperature, high humidity and light, up to 30 days) is “no obvious change”.
Regarding `NC(=O)[C@@H]1C[C@H](F)CN1Cc1ccc(OCc2cccc(F)c2)cc1` [Example 8, (2S,4S)-4-fluoro-1-(4-(3-fluorobenzyloxy)benzyl)pyrrolidine-2-carboxamide], in series [1], the AUClast was 378 ng·h/mL, the Cmax stood at 0.143 µg/mL and the Tmax stood at 0.7 h. Moreover, in series [2], the “Concentration of compound represented” value stood at 4719.01 µg/mL.
The corresponding values for `NC(=O)[C@@H]1C[C@H](F)CN1Cc1ccc(OCc2cccc(F)c2)cc1` [Example 9, (2S,4S)-4-fluoro-1-(4-(3-fluorobenzyloxy)benzyl)pyrrolidine-2-carboxamide] are 450 ng·h/mL, 0.151 µg/mL, 3.4 h and 575.35 µg/mL.
The like results for `NC(=O)[C@@H]1C[C@H](F)CN1Cc1ccc(OCc2cccc(F)c2)cc1` [Example 10, (2S,4S)-4-fluoro-1-(4-(3-fluorobenzyloxy)benzyl)pyrrolidine-2-carboxamide] were, in that order, 470 ng·h/mL, 0.162 µg/mL, 2.2 h and 1571.18 µg/mL.
